Experimental data from the supplement of paper PMC10307832.

Assays:
Experiment in all cases: relative viability (nuclei count vs DMSO), 5 days (fraction); higher = more cells survive
NCI-H1944 = tested on: NCI-H1944
Procedure, shortened: (§1)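 Each reported value is a median over duplicate plates. It expresses relative viability: treated-well nuclei count divided by vehicle-well nuclei count. Lung cancer cell lines in 1536-well plates were dosed by pin tool a day after seeding, alone with one drug or with a fixed anchor-drug dose plus five library-drug doses (not always all listed) in √10 steps, and nuclei were counted after 5 days.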

A-427 = tested on: A-427
Procedure, shortened: as §1

NCI-H2228 = tested on: NCI-H2228
Procedure, shortened: as §1

LXF-289 = tested on: LXF-289
Procedure, shortened: as §1

NCI-H596 = tested on: NCI-H596
Procedure, shortened: as §1

SW 900 = tested on: SW 900
Procedure, shortened: as §1

EMC-BAC-2 = tested on: EMC-BAC-2
Procedure, shortened: as §1

SW 1573 = tested on: SW 1573
Procedure, shortened: as §1

NCI-H1792 = tested on: NCI-H1792
Procedure, shortened: as §1

NCI-H2170 = tested on: NCI-H2170
Procedure, shortened: as §1

NCI-H3122 = tested on: NCI-H3122
Procedure, shortened: as §1

HARA = tested on: HARA
Procedure, shortened: as §1

PC-3 [JPC-3] = tested on: PC-3 [JPC-3]
Procedure, shortened: as §1

LK-2 = tested on: LK-2
Procedure, shortened: as §1

NCI-H1993 = tested on: NCI-H1993
Procedure, shortened: as §1

NCI-H1793 = tested on: NCI-H1793
Procedure, shortened: as §1

LU99A = tested on: LU99A
Procedure, shortened: as §1

NCI-H2009 = tested on: NCI-H2009
Procedure, shortened: as §1

SK-LU-1 = tested on: SK-LU-1
Procedure, shortened: as §1

SK-MES-1 = tested on: SK-MES-1
Procedure, shortened: as §1

COR-L23 = tested on: COR-L23
Procedure, shortened: as §1

NCI-H727 = tested on: NCI-H727
Procedure, shortened: as §1

HOP-62 = tested on: HOP-62
Procedure, shortened: as §1

COc1cc(N2CCC(C(N)=O)CC2)ccc1Nc1nc(N)c(Cl)c(Nc2ccccc2S(=O)(=O)C(C)C)n1 [HG-5-88-01] + CC(=O)Nc1cccc(-n2c(=O)n(C3CC3)c(=O)c3c(Nc4ccc(I)cc4F)n(C)c(=O)c(C)c32)c1 [Trametinib] (partner 0.02 µM)
relative viability (NCI-H1944; first compound 0.04 µM): 0.386
relative viability (NCI-H1944; first compound 0.1265 µM): 0.48
relative viability (NCI-H1944; first compound 0.4 µM): 0.396
relative viability (NCI-H1944; first compound 1.265 µM): 0.398
relative viability (NCI-H1944; first compound 4 µM): 0.398
relative viability (A-427; first compound 0.04 µM): 0.8
relative viability (A-427; first compound 0.1265 µM): 0.754
relative viability (A-427; first compound 0.4 µM): 0.749
relative viability (A-427; first compound 1.265 µM): 0.662
relative viability (A-427; first compound 4 µM): 0.487
relative viability (NCI-H2228; first compound 0.04 µM): 0.214
relative viability (NCI-H2228; first compound 0.1265 µM): 0.108
relative viability (NCI-H2228; first compound 0.4 µM): 0.268
relative viability (NCI-H2228; first compound 1.265 µM): 0.174
relative viability (NCI-H2228; first compound 4 µM): 0.231
relative viability (LXF-289; first compound 0.04 µM): 0.672
relative viability (LXF-289; first compound 0.1265 µM): 0.692
relative viability (LXF-289; first compound 0.4 µM): 0.511
relative viability (LXF-289; first compound 1.265 µM): 0.677
relative viability (LXF-289; first compound 4 µM): 0.672
relative viability (NCI-H596; first compound 0.04 µM): 0.901
relative viability (NCI-H596; first compound 0.1265 µM): 0.794
relative viability (NCI-H596; first compound 0.4 µM): 0.75
relative viability (NCI-H596; first compound 1.265 µM): 0.808
relative viability (NCI-H596; first compound 4 µM): 0.778
relative viability (SW 900; first compound 0.04 µM): 0.941
relative viability (SW 900; first compound 0.1265 µM): 0.943
relative viability (SW 900; first compound 0.4 µM): 0.875
relative viability (SW 900; first compound 1.265 µM): 0.627
relative viability (SW 900; first compound 4 µM): 0.685
relative viability (EMC-BAC-2; first compound 0.04 µM): 0.927
relative viability (EMC-BAC-2; first compound 0.1265 µM): 0.939
relative viability (EMC-BAC-2; first compound 0.4 µM): 0.8
relative viability (EMC-BAC-2; first compound 1.265 µM): 0.564
relative viability (EMC-BAC-2; first compound 4 µM): 0.632
relative viability (SW 1573; first compound 0.04 µM): 0.598
relative viability (SW 1573; first compound 0.1265 µM): 0.533
relative viability (SW 1573; first compound 0.4 µM): 0.581
relative viability (SW 1573; first compound 1.265 µM): 0.464
relative viability (SW 1573; first compound 4 µM): 0.52
relative viability (NCI-H1792; first compound 0.04 µM): 0.444
relative viability (NCI-H1792; first compound 0.1265 µM): 0.535
relative viability (NCI-H1792; first compound 0.4 µM): 0.401
relative viability (NCI-H1792; first compound 1.265 µM): 0.432
relative viability (NCI-H1792; first compound 4 µM): 0.576
relative viability (NCI-H2170; first compound 0.04 µM): 0.961
relative viability (NCI-H2170; first compound 0.1265 µM): 0.964
relative viability (NCI-H2170; first compound 0.4 µM): 0.894
relative viability (NCI-H2170; first compound 1.265 µM): 0.672
relative viability (NCI-H2170; first compound 4 µM): 1.03
relative viability (NCI-H3122; first compound 0.04 µM): 0.223
relative viability (NCI-H3122; first compound 0.1265 µM): 0.169
relative viability (NCI-H3122; first compound 0.4 µM): 0.154
relative viability (NCI-H3122; first compound 1.265 µM): 0.132
relative viability (NCI-H3122; first compound 4 µM): 0.0965
relative viability (HARA; first compound 0.04 µM): 1.01
relative viability (HARA; first compound 0.1265 µM): 0.709
relative viability (HARA; first compound 0.4 µM): 0.91
relative viability (HARA; first compound 1.265 µM): 0.394
relative viability (HARA; first compound 4 µM): 0.465
relative viability (PC-3 [JPC-3]; first compound 0.04 µM): 0.708
relative viability (PC-3 [JPC-3]; first compound 0.1265 µM): 0.738
relative viability (PC-3 [JPC-3]; first compound 0.4 µM): 0.684
relative viability (PC-3 [JPC-3]; first compound 1.265 µM): 0.448
relative viability (PC-3 [JPC-3]; first compound 4 µM): 0.361
relative viability (LK-2; first compound 0.04 µM): 0.927
relative viability (LK-2; first compound 0.1265 µM): 0.911
relative viability (LK-2; first compound 0.4 µM): 0.728
relative viability (LK-2; first compound 4 µM): 0.514
relative viability (NCI-H1993; first compound 0.04 µM): 0.413
relative viability (NCI-H1993; first compound 0.1265 µM): 0.458
relative viability (NCI-H1993; first compound 0.4 µM): 0.447
relative viability (NCI-H1993; first compound 4 µM): 0.45
relative viability (NCI-H1793; first compound 0.04 µM): 0.433
relative viability (NCI-H1793; first compound 0.1265 µM): 0.381
relative viability (NCI-H1793; first compound 0.4 µM): 0.462
relative viability (NCI-H1793; first compound 1.265 µM): 0.432
relative viability (NCI-H1793; first compound 4 µM): 0.578
relative viability (LU99A; first compound 0.04 µM): 0.584
relative viability (LU99A; first compound 0.1265 µM): 0.565
relative viability (LU99A; first compound 0.4 µM): 0.543
relative viability (LU99A; first compound 1.265 µM): 0.429
relative viability (LU99A; first compound 4 µM): 0.493
relative viability (NCI-H2009; first compound 0.04 µM): 0.272
relative viability (NCI-H2009; first compound 0.1265 µM): 0.271
relative viability (NCI-H2009; first compound 0.4 µM): 0.264
relative viability (NCI-H2009; first compound 1.265 µM): 0.211
relative viability (NCI-H2009; first compound 4 µM): 0.295
relative viability (SK-LU-1; first compound 0.04 µM): 0.394
relative viability (SK-LU-1; first compound 0.1265 µM): 0.388
relative viability (SK-LU-1; first compound 0.4 µM): 0.451
relative viability (SK-LU-1; first compound 1.265 µM): 0.474
relative viability (SK-LU-1; first compound 4 µM): 0.363
relative viability (SK-MES-1; first compound 0.04 µM): 0.535
relative viability (SK-MES-1; first compound 0.1265 µM): 0.54
relative viability (SK-MES-1; first compound 0.4 µM): 0.503
relative viability (SK-MES-1; first compound 1.265 µM): 0.498
relative viability (SK-MES-1; first compound 4 µM): 0.619
relative viability (COR-L23; first compound 0.04 µM): 0.502
relative viability (COR-L23; first compound 0.1265 µM): 0.664
relative viability (COR-L23; first compound 0.4 µM): 0.51
relative viability (COR-L23; first compound 1.265 µM): 0.488
relative viability (COR-L23; first compound 4 µM): 0.368
relative viability (NCI-H727; first compound 0.04 µM): 0.379
relative viability (NCI-H727; first compound 0.1265 µM): 0.394
relative viability (NCI-H727; first compound 0.4 µM): 0.399
relative viability (NCI-H727; first compound 4 µM): 0.364
relative viability (HOP-62; first compound 0.04 µM): 0.391
relative viability (HOP-62; first compound 0.1265 µM): 0.411
relative viability (HOP-62; first compound 0.4 µM): 0.345
relative viability (HOP-62; first compound 1.265 µM): 0.317
relative viability (HOP-62; first compound 4 µM): 0.383
